Values after ≈ are worked out from the molar mass of the structure shown.
Legend:
Assay type in all cases: functional
[1] = test system: SR; test: Growth inhibition of human SR cells at 10 uM incubated for 48 hrs by sulforhodamine B assay; conditions: read-out: GI
[2] = Growth inhibition of human EKVX cells incubated for 48 hrs by sulforhodamine B assay
[3] = test system: SR; test: Growth inhibition of human SR cells incubated for 48 hrs by sulforhodamine B assay
[4] = test system: MCF7; test: Growth inhibition of human MCF7 cells incubated for 48 hrs by sulforhodamine B assay; conditions: MCF7, 48 h
[5] = test system: CCRF-CEM; test: Growth inhibition of human CCRF-CEM cells incubated for 48 hrs by sulforhodamine B assay
[6] = test system: Escherichia coli; test: Antimicrobial activity against Escherichia coli ATCC 11775 incubated for 24 hrs by two-fold serial broth dilution method; conditions: ATCC 11775, 24 h
[7] = Growth inhibition of human LOXIMVI cells at 10 uM incubated for 48 hrs by sulforhodamine B assay; conditions: LOX IMVI, read-out: GI
[8] = test system: SK-MEL-5; test: Growth inhibition of human SK-MEL-5 cells incubated for 48 hrs by sulforhodamine B assay; conditions: SK-MEL-5, 48 h
[9] = test system: UACC-257; test: Growth inhibition of human UACC257 cells incubated for 48 hrs by sulforhodamine B assay; conditions: UACC-257, 48 h
[10] = test system: OVCAR-3; test: Growth inhibition of human OVCAR3 cells incubated for 48 hrs by sulforhodamine B assay; conditions: OVCAR-3, 48 h
[11] = Growth inhibition of human HOP92 cells incubated for 48 hrs by sulforhodamine B assay; conditions: HOP-92, 48 h
[12] = test system: OVCAR-4; test: Growth inhibition of human OVCAR4 cells incubated for 48 hrs by sulforhodamine B assay; conditions: OVCAR-4, 48 h
[13] = test system: HCT-116; test: Growth inhibition of human HCT116 cells at 10 uM incubated for 48 hrs by sulforhodamine B assay; conditions: HCT-116, 48 h, read-out: GI
[14] = test system: NCI-H460; test: Growth inhibition of human NCI-H460 cells incubated for 48 hrs by sulforhodamine B assay; conditions: NCI-H460, 48 h
[15] = test system: Pseudomonas aeruginosa; test: Antimicrobial activity against Pseudomonas aeruginosa ATCC 10145 incubated at 37 degC for 24 hrs by cup diffusion method
[16] = test system: HT-29; test: Growth inhibition of human HT-29 cells incubated for 48 hrs by sulforhodamine B assay; conditions: HT-29, 48 h
[17] = test system: U-251; test: Growth inhibition of human U251 cells incubated for 48 hrs by sulforhodamine B assay; conditions: U-251, 48 h
[18] = Growth inhibition of human MOLT4 cells at 10 uM incubated for 48 hrs by sulforhodamine B assay; conditions: MOLT-4, 48 h, read-out: GI
[19] = test system: Staphylococcus aureus; test: Antimicrobial activity against Staphylococcus aureus DSM 1104 incubated for 24 hrs by two-fold serial broth dilution method; conditions: DSM 1104, 24 h
[20] = Growth inhibition of human MOLT4 cells incubated for 48 hrs by sulforhodamine B assay; conditions: MOLT-4, 48 h
[21] = test system: Bacillus subtilis; test: Antimicrobial activity against Bacillus subtilis ATCC 6633 incubated at 37 degC for 24 hrs by cup diffusion method
[22] = test system: Escherichia coli; test: Antimicrobial activity against Escherichia coli ATCC 11775 incubated at 37 degC for 24 hrs by cup diffusion method
[23] = test system: TK-10; test: Growth inhibition of human TK10 cells incubated for 48 hrs by sulforhodamine B assay; conditions: TK-10, 48 h
[24] = Growth inhibition of human RPMI8226 cells incubated for 48 hrs by sulforhodamine B assay; conditions: RPMI-8226, 48 h
[25] = test system: Pseudomonas aeruginosa; test: Antimicrobial activity against Pseudomonas aeruginosa ATCC 10145 incubated for 24 hrs by two-fold serial broth dilution method; conditions: ATCC 10145, 24 h
[26] = test system: M14; test: Growth inhibition of human M14 cells incubated for 48 hrs by sulforhodamine B assay; conditions: M14, 48 h
[27] = test system: HCT-116; test: Growth inhibition of human HCT116 cells incubated for 48 hrs by sulforhodamine B assay; conditions: HCT-116, 48 h
[28] = test system: NCI-H522; test: Growth inhibition of human NCI-H522 cells incubated for 48 hrs by sulforhodamine B assay; conditions: NCI-H522, 48 h
[29] = test system: U-251; test: Growth inhibition of human U251 cells at 10 uM incubated for 48 hrs by sulforhodamine B assay; conditions: U-251, 48 h, read-out: GI
[30] = Growth inhibition of human BT549 cells incubated for 48 hrs by sulforhodamine B assay; conditions: BT-549, 48 h
[31] = test system: SK-OV-3; test: Growth inhibition of human SKOV3 cells incubated for 48 hrs by sulforhodamine B assay; conditions: SK-OV-3, 48 h
[32] = test system: Escherichia coli; test: Antimicrobial activity against Escherichia coli ATCC 11775 incubated for 24 hrs followed by transfer of colonies to Muller-Hinton agar plate and measured after 18 hrs by two-fold serial broth dilution method
[33] = Growth inhibition of human RPMI8226 cells at 10 uM incubated for 48 hrs by sulforhodamine B assay; conditions: RPMI-8226, 48 h, read-out: GI
[34] = test system: MDA-MB-468; test: Growth inhibition of human MDA-MB-468 cells incubated for 48 hrs by sulforhodamine B assay; conditions: MDA-MB-468, 48 h
[35] = test system: A498; test: Growth inhibition of human A498 cells incubated for 48 hrs by sulforhodamine B assay; conditions: A498, 48 h
[36] = test system: IGROV-1; test: Growth inhibition of human IGROV1 cells incubated for 48 hrs by sulforhodamine B assay; conditions: IGROV-1, 48 h
[37] = Growth inhibition of human SF295 cells incubated for 48 hrs by sulforhodamine B assay; conditions: SF-295, 48 h
[38] = test system: K562; test: Growth inhibition of human K562 cells incubated for 48 hrs by sulforhodamine B assay; conditions: K562, 48 h
[39] = test system: PC-3; test: Growth inhibition of human PC3 cells incubated for 48 hrs by sulforhodamine B assay; conditions: PC-3, 48 h

Clc1ccccc1-c1nnc2c(Cc3ccccc3)nc3ccccc3n12
inhibition of growth at 10 µM [1]: 84.9%
GI50 [2]: 5.96 µM
GI50 [3]: 3.91 µM
GI50 [4]: 22.2 µM
GI50 [5]: 7.11 µM
MIC [6]: 25 µg/mL (≈ 67.4 µM)
inhibition of growth at 10 µM [7]: 60.6%
GI50 [8]: 5.9 µM
GI50 [9]: 34.3 µM
GI50 [10]: 21.7 µM
GI50 [11]: 3.45 µM
GI50 [12]: 8.01 µM
inhibition of growth at 10 µM [13]: 65.9%
GI50 [14]: 3.49 µM
inhibition zone (IZ) [15]: 14 mm
GI50 [16]: 9.15 µM
GI50 [17]: 5.18 µM
inhibition of growth at 10 µM [18]: 60.4%
MIC [19]: 100 µg/mL (≈ 270 µM)
GI50 [20]: 9.04 µM
inhibition zone (IZ) [21]: 12 mm
inhibition zone (IZ) [22]: 10 mm
GI50 [23]: 37.4 µM
GI50 [24]: 5.64 µM
MIC [25]: 50 µg/mL (≈ 135 µM)
GI50 [26]: 36.7 µM
GI50 [27]: 3.21 µM
GI50 [28]: 53.9 µM
inhibition of growth at 10 µM [29]: 57.2%
GI50 [30]: 6.72 µM
GI50 [31]: 23.9 µM
MBC [32]: 50 µg/mL (≈ 135 µM)
inhibition of growth at 10 µM [33]: 63.8%
GI50 [34]: 5.55 µM
GI50 [35]: 1.8 µM
GI50 [36]: 27.7 µM
GI50 [37]: 12.3 µM
GI50 [38]: 5.55 µM
GI50 [39]: 5.19 µM
